Positions of bridges follow the written chain, without caps; N, C: chain ends. Non-standard residues stand in square brackets, D forms with d. Residues, ends and D or L forms follow the SMILES beside them. Aib = CC(C)(N)C(=O)O
What was measured:
ER alpha = molecular target: T1, ER alpha (Homo sapiens, UniProt P03372); test: competition binding assay against a model linear peptide sequence (estrogen receptor-coactivator interaction), ER alpha; conditions: competition binding assay (Lilly Research Labs); read-out: Ki ER α
T1 sequence (P03372 1-595): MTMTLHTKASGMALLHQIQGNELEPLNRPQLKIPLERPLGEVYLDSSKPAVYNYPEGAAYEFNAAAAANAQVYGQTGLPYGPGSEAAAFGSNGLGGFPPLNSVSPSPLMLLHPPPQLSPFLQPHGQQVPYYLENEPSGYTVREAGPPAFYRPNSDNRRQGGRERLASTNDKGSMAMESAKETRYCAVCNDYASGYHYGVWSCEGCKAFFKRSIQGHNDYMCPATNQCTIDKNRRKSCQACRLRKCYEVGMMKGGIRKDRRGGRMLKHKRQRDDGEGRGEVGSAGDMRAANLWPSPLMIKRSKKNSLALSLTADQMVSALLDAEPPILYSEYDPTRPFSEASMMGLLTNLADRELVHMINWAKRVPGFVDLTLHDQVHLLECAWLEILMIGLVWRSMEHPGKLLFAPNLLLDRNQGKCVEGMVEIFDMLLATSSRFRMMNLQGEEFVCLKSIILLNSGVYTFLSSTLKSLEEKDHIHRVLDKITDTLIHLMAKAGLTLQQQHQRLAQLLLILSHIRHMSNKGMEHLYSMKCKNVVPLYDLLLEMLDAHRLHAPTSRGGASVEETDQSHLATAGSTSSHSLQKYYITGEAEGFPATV
Experimental: (§1) The synthetic helicormimetic peptides designed as antagonists of the estrogen receptor-coactivator interactions were tested in a competition binding assay (Lilly Research Labs) against a model linear peptide sequence. Activities are reported in the Table below in Ki values, with two of the best analogs labeled as PERM-1 and PERM-2, or Peptidomimetic Estrogen Receptor Modulators.

ER beta = ER beta (Homo sapiens, UniProt Q92731); test: competition binding assay against a model linear peptide sequence (estrogen receptor-coactivator interaction), ER beta; conditions: competition binding assay (Lilly Research Labs); read-out: Ki ER β
ER beta, sequence (Q92731 whole entry): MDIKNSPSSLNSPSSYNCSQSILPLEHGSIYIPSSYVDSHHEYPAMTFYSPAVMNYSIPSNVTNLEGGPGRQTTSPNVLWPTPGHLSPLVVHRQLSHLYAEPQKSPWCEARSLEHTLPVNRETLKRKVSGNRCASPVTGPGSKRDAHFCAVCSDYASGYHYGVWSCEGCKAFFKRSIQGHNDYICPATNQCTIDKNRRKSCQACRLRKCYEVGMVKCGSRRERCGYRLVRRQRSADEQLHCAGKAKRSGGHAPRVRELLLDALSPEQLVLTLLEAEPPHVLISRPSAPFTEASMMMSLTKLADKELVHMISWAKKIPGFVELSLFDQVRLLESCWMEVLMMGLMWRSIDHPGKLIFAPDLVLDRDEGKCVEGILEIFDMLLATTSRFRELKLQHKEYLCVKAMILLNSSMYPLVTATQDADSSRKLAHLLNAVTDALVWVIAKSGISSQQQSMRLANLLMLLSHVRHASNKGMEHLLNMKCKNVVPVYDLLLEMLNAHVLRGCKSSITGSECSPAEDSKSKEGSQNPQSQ
Experimental: as §1

estrogen receptors = test: inhibition of the binding of the estrogen receptors to the helical segment of coactivator proteins; conditions: result in words
Experimental: as §1

Molecule | Ki (ER alpha) [nM] | Ki (ER beta) [nM] | inhibitory activity on binding of estrogen receptors to helical segment of coactivator proteins (estrogen receptors)
CC[C@H](C)[C@@H]1NC(=O)[C@H](NC(=O)[C@H](CCCCN)NC(C)=O)CSSC[C@@H](C(=O)N[C@@H](CCCNC(=N)N)C(=O)N[C@@H](CC(C)C)C(=O)N[C@@H](CC(C)C)C(=O)N[C@@H](CCC(N)=O)C(N)=O)NC(=O)[C@H](CC(C)C)NC1=O [AML-I-71/2, Ac-Lys-cyclo(D-Cys-Ile-Leu-Cys)-Arg-Leu-Leu-Gln-NH2] (Ac-K[dC]ILCRLLQ-NH2; disulfide 2-5) | 120 | 7700 | –
CC[C@H](C)[C@@H]1NC(=O)[C@H](NC(=O)[C@H](CCCCN)NC(=O)C(C)(C)N)CSSC[C@@H](C(=O)N[C@@H](CCCNC(=N)N)C(=O)N[C@@H](CC(C)C)C(=O)N[C@@H](CC(C)C)C(=O)N[C@@H](CCC(N)=O)C(N)=O)NC(=O)[C@H](CC(C)C)NC1=O [AML-I-83/4, Aib-Lys-cyclo(D-Cys-Ile-Leu-Cys)-Arg-Leu-Leu-Gln-NH2] (H-[Aib]K[dC]ILCRLLQ-NH2; disulfide 3-6; N-terminus assumed) | 130 | 1400 | –
CC[C@H](C)[C@H](NC(=O)[C@H](CCCCN)NC(=O)[C@H](Cc1c[nH]cn1)NC(=O)[C@@H](N)CCCCN)C(=O)N[C@@H](CC(C)C)C(=O)N[C@@H](Cc1c[nH]cn1)C(=O)N[C@@H](CCCNC(=N)N)C(=O)N[C@@H](CC(C)C)C(=O)N[C@@H](CC(C)C)C(=O)N[C@@H](CCC(N)=O)C(=O)N[C@@H](CC(=O)O)C(=O)N[C@@H](CO)C(=O)N[C@@H](CO)C(=O)O [AML-I-89/2, H-Lys-His-Lys-Ile-Leu-His-Arg-Leu-Leu-Gln-Asp-Ser-Ser-OH] (H-KHKILHRLLQDSS-OH) | 380 | 6900 | –
Leu-Asn-Gln-Leu-Leu (LNQLL; printed: Leu-Asn-Gln-Leu-Leu) | – | – | do not display any inhibitory activity
